Among the data in patent publication US20040219191A1, “Use of a dopamine agonist with a short half-life for treating illnesses which can be treated by dopaminergic means” (priority 2000, published 2004) are water solubility values, retold here.

This data set can be described thus: Water solubility. The settings on record: lisuride or a salt thereof.

On to `CCN(CC)C(=O)N[C@H]1C=C2c3cccc4[nH]cc(c34)C[C@H]2N(C)C1` [lisuride, 3-(9,10-didehydro-6-methyl-8α-ergolinyl)-1,1-diethyl urea], for which the water solubility result is on record as “good water solubility”.
